Results on 1 compound are retold here after patent US8614203B2, “Methods for the treatment of a central nervous system injury via a tapered administration protocol” (Emory University, priority 2005, dated 2013).

This data set has as its system medial frontal cortex (MFC) injury or sham. The data set can be described thus: Example 4: Digiscan locomotor activity boxes (center time). It is filed as in vivo, Sprague-Dawley rats. The text has this: 60 male Sprague-Dawley rats weighing 290-310 g at the time of injury were used in this experiment. Food and water were provided ad libidum before and after surgery. Animals were handled and weighed daily from their arrival, seven days pre-surgery, to brain extraction three weeks post-surgery. Animals were handled in squads of 12, with n=10 per experimental condition. All animal procedures were approved by the Emory University Animal Care and Use Committee, Protocol #131-2002.
Isofluorane anesthesia was induced for four minutes and 45 seconds at 5% and maintained at 2.5%. Normal body temperature was maintained with a surgical heating pad placed beneath the sterile dressings. The scalp incision area was shaved and sterilized with iodine and isopropanol. A midline incision was made along the scalp and the fascia cleared to expose the surface of the skull. Medial, lateral, and dorsal stereotaxic coordinates were determined at bregma, and a 5-7 mm diameter bilateral craniotomy was performed mid-sagitally, 3 mm anterior to bregma. […] Sutures were used to close the incision after bleeding ceased. Animals were placed in individual heated, clean recovery cages until they awakened, and were returned to clean individual home cages with accessible moistened food pellets. Sham animals were anesthetized, and an incision was made at the top of the head. The fascia was cleared to expose bregma, then the incision was sutured closed. Sham surgeries were matched to lesion surgeries for all experimental conditions.
Sham (S) and lesion (L) animals were randomly assigned to one of three treatment groups: vehicle (VS, VL), acute withdrawal (AWS, AWL), and tapered withdrawal (TWS, TWL). […] Tapering was induced as halved dosages over the last two days of treatment. Dilutions for TW treatments were made with HBC stock. All injections were administered intraperitoneally at one hour post-injury, and subcutaneously at six hours post-injury and every 24 hours through the end of the treatment cycle. Five sets of 12 animals each were used, for a total n=10 for each experimental group over the entire experiment. Of these animals, all were used to acquire behavioral data, four samples were used for protein analysis, and six samples were used for histological analysis for each test condition.
Random order, blinded testing occurred under red light in a quiet environment one day before injury, and one and seven days post-withdrawal. Up to four animals were tested using the Digiscan Activity Monitoring System (AccuScan Instruments, inc. Columbus, Ohio) in each trial, with a total of three trials per test day. Rats were placed in the furthest left corner of the Digiscan Activity Box. At that time, the toggle switch was flipped to ‘on’. At exactly five minutes the computer ceased testing, assuring that all tests were the same length regardless of start time. Files were saved according to date and trial number, and the number of fecal boli recorded. Activity boxes were cleaned with 70% ethanol and dried between trials. Center time was defined by the computer as the amount of time the animal spent exploring the activity box away from the corners.
All results were expressed as the mean plus or minus the standard error of the mean. Statistical significance was set at p<0.05 for two-tailed tests, and data were analyzed using one-way analysis of variance (ANOVA) followed by LSD post hoc tests. […]

With `CC(=O)[C@H]1CC[C@H]2[C@@H]3CCC4=CC(=O)CC[C@]4(C)[C@H]3CC[C@]12C` [progesterone, pregn-4-ene-3,20-dione], the center time entry is, setting by setting: (acute withdrawal, lesion (AWL), one and seven days post-withdrawal) “increased center time compared to VL animals”; (acute withdrawal, sham (AWS), one day post-withdrawal) “significantly less center time compared to other shams”; (sham groups (AWS, TWS, VS), seven days post-withdrawal) “all sham animals spent equivalent center time”; (tapered withdrawal, lesion (TWL), one and seven days post-withdrawal) “increased center time over AWL animals”; (tapered withdrawal, sham (TWS), one day post-withdrawal) “increased center time at one day compared to VS animals”.
